Measured values: patent US20240376094A2, “SELECTIVE BCL-XL PROTAC COMPOUNDS AND METHODS OF USE” (Les Laboratoires Servier, priority 2021, published 2024)

Key:
[1] = test system: EBC-1 lung cancer cell line; test: EBC-1 cell proliferation, CellTiter-Glo assay; format: cell-based; conditions: Homo sapiens, 120 h; Ebc-1 cell viability, CTG assay, 5 days of treatment; read-out: CTG 5 day Ebc1 GI50
How it was run: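 EBC-1 cells seeded at 1000 per well overnight, then exposed to 10-point dilutions (0.508 nM–10 μM final) for 5 days at 37 °C, in triplicate. ATP luminescence by CellTiter-Glo, normalised to untreated wells; GI50 from four-parameter logistic fit, runs valid only with at least one doubling.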

[2] = biological target: T1, HiBiT-tagged BCL-xL (Homo sapiens, UniProt Q07817); test: NCI-H1650 BCL-xL protein levels, Nano-Glo HiBiT Lytic Detection; format: cell-based; conditions: NCI-H1650 expressing HiBiT-tagged BCL-xL, overnight incubation, read-out: Bcl-xl HIBIT NCIH1650 DC50
T1 construct: expressed in transfected cells; host or cells: NCI-H1650 (ATCC No. CRL-5883), engineered HiBiT cell line
T1 sequence (Q07817 whole entry): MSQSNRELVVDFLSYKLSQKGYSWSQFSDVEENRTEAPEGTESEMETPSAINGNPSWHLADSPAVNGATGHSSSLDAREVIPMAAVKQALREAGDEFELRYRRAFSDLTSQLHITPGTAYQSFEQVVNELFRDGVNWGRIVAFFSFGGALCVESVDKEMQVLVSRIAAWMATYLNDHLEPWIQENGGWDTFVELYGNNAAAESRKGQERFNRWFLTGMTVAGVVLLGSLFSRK
How it was run: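 NCI-H1650 cells expressing HiBiT-tagged BCL-xL (5000/well) were treated overnight at 37° C with 10 concentrations, final 0.508 nM-10 μM, in triplicate. Remaining BCL-xL measured by Nano-Glo HiBiT lytic luminescence, normalized to untreated cells; 50% values by four-parameter logistic fit.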

Compound | GI50 [1] [nM] | DC50 [2] [nM]
Cc1ncsc1-c1ccc(CNC(=O)C2C[C@@H](O)CN2C(=O)C(NC(=O)CCCCCC(=O)N2CCN(CC#Cc3ccc(OCCCc4sc(N5CCCc6c5nnc(Nc5nc7ccccc7s5)c6C)nc4C(=O)O)c(F)c3)CC2)C(C)(C)C)cc1 (stereo in doubt) [Example 15, 2-[3-(1,3-benzothiazol-2-ylamino)-4-methyl-6,7-dihydro-5H-pyrido[2,3-c]pyridazin-8-yl]-5-[3-[2-fluoro-4-[3-[4-[7-[[(1S)-1-[(2S,4R)-4-hydroxy-2-[[4-(4-methylthiazol-5-yl)phenyl]methylcarbamoyl]pyrrolidine-1-carbonyl]-2,2-dimethyl-propyl]amino]-7-oxo-heptanoyl]piperazin-1-yl]prop-1-ynyl]phenoxy]propyl] thiazole-4-carboxylic acid] | 21 | > 1670
Cc1ncsc1-c1ccc([C@H](C)NC(=O)[C@@H]2C[C@@H](O)CN2C(=O)[C@@H](NC(=O)CCCCCCCCN(C)CCOC23CC4(C)CC(C)(CC(Cn5ncc(-c6ccc(N7CCCc8c7nnc(Nc7nc9ccccc9s7)c8C)nc6C(=O)O)c5C)(C4)C2)C3)C(C)(C)C)cc1 [Example 5, 6-[3-(1,3-benzothiazol-2-ylamino)-4-methyl-6,7-dihydro-5H-pyrido[2,3-c]pyridazin-8-yl]-3-[1-[[3-[2-[[9-[[(1S)-1-[(2S,4R)-4-hydroxy-2-[[(1S)-1-[4-(4-methylthiazol-5-yl)phenyl]ethyl]carbamoyl]pyrrolidine-1-carbonyl]-2,2-dimethyl-propyl]amino]-9-oxo-nonyl]-methyl-amino]ethoxy]-5,7-dimethyl-1-adamantyl]methyl]-5-methyl-pyrazol-4-yl]pyridine-2-carboxylic acid] | 23 | 2
Cc1ncsc1-c1ccc([C@H](C)NC(=O)[C@@H]2C[C@@H](O)CN2C(=O)[C@@H](NC(=O)CCCCCCCN(C)CCOC23CC4(C)CC(C)(CC(Cn5ncc(-c6ccc(N7CCCc8c7nnc(Nc7nc9ccccc9s7)c8C)nc6C(=O)O)c5C)(C4)C2)C3)C(C)(C)C)cc1 [Example 6, 6-[3-(1,3-benzothiazol-2-ylamino)-4-methyl-6,7-dihydro-5H-pyrido[2,3-c]pyridazin-8-yl]-3-[1-[[3-[2-[[8-[[(1S)-1-[(2S,4R)-4-hydroxy-2-[[(1S)-1-[4-(4-methylthiazol-5-yl)phenyl]ethyl]carbamoyl]pyrrolidine-1-carbonyl]-2,2-dimethyl-propyl]amino]-8-oxo-octyl]-methyl-amino]ethoxy]-5,7-dimethyl-1-adamantyl]methyl]-5-methyl-pyrazol-4-yl]pyridine-2-carboxylic acid] | 13 | 3
Cc1ncsc1-c1ccc(CNC(=O)[C@@H]2C[C@@H](O)CN2C(=O)[C@@H](NC(=O)CCCCCCC(=O)N2CCN(CC#Cc3ccc(OCCCc4sc(N5CCCc6c5nnc(Nc5nc7ccccc7s5)c6C)nc4C(=O)O)c(F)c3)CC2)C(C)(C)C)cc1 [Example 33, 2-(3-(benzo[d]thiazol-2-ylamino)-4-methyl-6,7-dihydropyrido [2,3-c]pyridazin-8(5H)-yl)-5-(3-(2-fluoro-4-(3-(4-(8-(((S)-1-((2S,4R)-4-hydroxy-2-((4-(4-methylthiazol-5-yl)benzyl)carbamoyl)pyrrolidin-1-yl)-3,3-dimethyl-1-oxobutan-2-yl)amino)-8-oxooctanoyl)piperazin-1-yl)prop-1-yn-1-yl)phenoxy)propyl) thiazole-4-carboxylic acid] | 33 | > 1670
Cc1ncsc1-c1ccc([C@H](C)NC(=O)[C@@H]2C[C@@H](O)CN2C(=O)[C@@H](NC(=O)CCCC(=O)N2CCN(CC#Cc3ccc(OCCCc4sc(N5CCCc6c5nnc(Nc5nc7ccccc7s5)c6C)nc4C(=O)O)c(F)c3)CC2)C(C)(C)C)cc1 [Example 35, 2-(3-(benzo[d]thiazol-2-ylamino)-4-methyl-6,7-dihydropyrido [2,3-c]pyridazin-8(5H)-yl)-5-(3-(2-fluoro-4-(3-(4-(5-(((S)-1-((2S,4R)-4-hydroxy-2-(((S)-1-(4-(4-methylthiazol-5-yl)phenyl)ethyl)carbamoyl)pyrrolidin-1-yl)-3,3-dimethyl-1-oxobutan-2-yl)amino)-5-oxopentanoyl)piperazin-1-yl)prop-1-yn-1-yl)phenoxy)propyl)thiazole-4-carboxylic acid] | 19 | > 1670
Cc1ncsc1-c1ccc([C@H](C)NC(=O)[C@@H]2C[C@@H](O)CN2C(=O)[C@@H](NC(=O)CC23CC4CC(C2)CC(CC(=O)N2CCN(CC#Cc5ccc(OCCCc6sc(N7CCCc8c7nnc(Nc7nc9ccccc9s7)c8C)nc6C(=O)O)c(F)c5)CC2)(C4)C3)C(C)(C)C)cc1 [Example 42, 2-(3-(benzo[d]thiazol-2-ylamino)-4-methyl-6,7-dihydropyrido [2,3-c]pyridazin-8(5H)-yl)-5-(3-(2-fluoro-4-(3-(4-(2-((3S,5R)-3-(2-(((S)-1-((2S,4R)-4-hydroxy-2-(((S)-1-(4-(4-methylthiazol-5-yl)phenyl)ethyl)carbamoyl)pyrrolidin-1-yl)-3,3-dimethyl-1-oxobutan-2-yl)amino)-2-oxoethyl)adamantan-1-yl)acetyl)piperazin-1-yl)prop-1-yn-1-yl)phenoxy)propyl)thiazole-4-carboxylic acid] | 21 | > 1670
Cc1ncsc1-c1ccc([C@H](C)NC(=O)[C@@H]2C[C@@H](O)CN2C(=O)[C@@H](NC(=O)CCCCCCCCCCC(=O)N2CCN(CCOC34CC5(C)CC(C)(CC(Cn6ncc(-c7ccc(N8CCCc9c8nnc(Nc8nc%10ccccc%10s8)c9C)nc7C(=O)O)c6C)(C5)C3)C4)CC2)C(C)(C)C)cc1 [Example 47, 6-(3-(benzo[d]thiazol-2-ylamino)-4-methyl-6,7-dihydropyrido [2,3-c]pyridazin-8(5H)-yl)-3-(1-(((1r,3s,5R,7S)-3-(2-(4-(12-(((S)-1-((2S,4R)-4-hydroxy-2-(((S)-1-(4-(4-methylthiazol-5-yl)phenyl)ethyl)carbamoyl)pyrrolidin-1-yl)-3,3-dimethyl-1-oxobutan-2-yl)amino)-12-oxododecanoyl)piperazin-1-yl)ethoxy)-5,7-dimethyladamantan-1-yl)methyl)-5-methyl-1H-pyrazol-4-yl)picolinic acid] | 76 | 9

The next compounds have a lower GI50 [1] than those just listed; values first:

GI50 [1] [nM] | DC50 [2] [nM] | Compound
1 | 0.4 | Cc1ncsc1-c1ccc([C@H](C)NC(=O)C2CC(O)CN2C(=O)C(NC(=O)CCCCCCCCCCCN2CCN(CC#Cc3ccc(OCCCc4sc(N5CCCc6c5nnc(Nc5nc7ccccc7s5)c6C)nc4C(=O)O)c(F)c3)CC2)C(C)(C)C)cc1 (stereo in doubt) [Example 31, 2-[3-(1,3-benzothiazol-2-ylamino)-4-methyl-6,7-dihydro-5H-pyrido[2,3-c]pyridazin-8-yl]-5-[3-[2-fluoro-4-[3-[4-[12-[[(1S)-1-[(2S,4R)-4-hydroxy-2-[[(1S)-1-[4-(4-methylthiazol-5-yl)phenyl]ethyl]carbamoyl]pyrrolidine-1-carbonyl]-2,2-dimethyl-propyl]amino]-12-oxo-dodecyl]piperazin-1-yl]prop-1-ynyl]phenoxy]propyl] thiazole-4-carboxylic acid]
5 | 1 | Cc1ncsc1-c1ccc([C@H](C)NC(=O)[C@@H]2C[C@@H](O)CN2C(=O)[C@@H](NC(=O)CCCCCCCCCCCCCCCN(C)CCOC23CC4(C)CC(C)(CC(Cn5ncc(-c6ccc(N7CCCc8c7nnc(Nc7nc9ccccc9s7)c8C)nc6C(=O)O)c5C)(C4)C2)C3)C(C)(C)C)cc1 [Example 1, 6-[3-(1,3-benzothiazol-2-ylamino)-4-methyl-6,7-dihydro-5H-pyrido[2,3-c]pyridazin-8-yl]-3-[1-[[3-[2-[[16-[[(1S)-1-[(2S,4R)-4-hydroxy-2-[[(1S)-1-[4-(4-methylthiazol-5-yl)phenyl]ethyl]carbamoyl]pyrrolidine-1-carbonyl]-2,2-dimethyl-propyl]amino]-16-oxo-hexadecyl]-methyl-amino]ethoxy]-5,7-dimethyl-1-adamantyl]methyl]-5-methyl-pyrazol-4-yl]pyridine-2-carboxylic acid]
7 | 2 | Cc1ncsc1-c1ccc([C@H](C)NC(=O)[C@@H]2C[C@@H](O)CN2C(=O)[C@@H](NC(=O)CCCCCCCCCCC(=O)N2CCN(CC#Cc3ccc(OCCCc4sc(N5CCCc6c5nnc(Nc5nc7ccccc7s5)c6C)nc4C(=O)O)c(F)c3)CC2)C(C)(C)C)cc1 [Example 46, 2-(3-(benzo[d]thiazol-2-ylamino)-4-methyl-6,7-dihydropyrido [2,3-c]pyridazin-8(5H)-yl)-5-(3-(2-fluoro-4-(3-(4-(12-(((S)-1-((2S,4R)-4-hydroxy-2-(((S)-1-(4-(4-methylthiazol-5-yl)phenyl)ethyl)carbamoyl)pyrrolidin-1-yl)-3,3-dimethyl-1-oxobutan-2-yl)amino)-12-oxododecanoyl)piperazin-1-yl)prop-1-yn-1-yl)phenoxy)propyl)thiazole-4-carboxylic acid]
12 | 1 | Cc1ncsc1-c1ccc(CNC(=O)[C@@H]2C[C@@H](O)CN2C(=O)[C@@H](NC(=O)CCCCCCCCCCC(=O)N2CCN(CC#Cc3ccc(OCCCc4sc(N5CCCc6c5nnc(Nc5nc7ccccc7s5)c6C)nc4C(=O)O)c(F)c3)CC2)C(C)(C)C)cc1 [Example 48, 2-(3-(benzo[d]thiazol-2-ylamino)-4-methyl-6,7-dihydropyrido [2,3-c]pyridazin-8(5H)-yl)-5-(3-(2-fluoro-4-(3-(4-(12-(((S)-1-((2S,4R)-4-hydroxy-2-((4-(4-methylthiazol-5-yl)benzyl)carbamoyl)pyrrolidin-1-yl)-3,3-dimethyl-1-oxobutan-2-yl)amino)-12-oxododecanoyl)piperazin-1-yl)prop-1-yn-1-yl)phenoxy)propyl)thiazole-4-carboxylic acid]
